Test results: patent US20260062443A1 (ALEXION PHARMACEUTICALS, INC., priority 2022, published 2026)

Target: T1, Human complement C1s enzyme (Homo sapiens, UniProt P09871)
T1 sequence (P09871 438-688 limits assumed): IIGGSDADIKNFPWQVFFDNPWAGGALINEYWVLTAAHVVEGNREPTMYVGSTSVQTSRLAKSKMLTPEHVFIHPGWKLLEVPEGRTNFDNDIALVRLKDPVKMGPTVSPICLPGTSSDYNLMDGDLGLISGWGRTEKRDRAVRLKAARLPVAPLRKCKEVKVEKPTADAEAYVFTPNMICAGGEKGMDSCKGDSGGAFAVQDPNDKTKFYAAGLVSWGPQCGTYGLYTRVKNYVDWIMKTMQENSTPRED
T1 sequence (P09871 16-437 partner limits assumed): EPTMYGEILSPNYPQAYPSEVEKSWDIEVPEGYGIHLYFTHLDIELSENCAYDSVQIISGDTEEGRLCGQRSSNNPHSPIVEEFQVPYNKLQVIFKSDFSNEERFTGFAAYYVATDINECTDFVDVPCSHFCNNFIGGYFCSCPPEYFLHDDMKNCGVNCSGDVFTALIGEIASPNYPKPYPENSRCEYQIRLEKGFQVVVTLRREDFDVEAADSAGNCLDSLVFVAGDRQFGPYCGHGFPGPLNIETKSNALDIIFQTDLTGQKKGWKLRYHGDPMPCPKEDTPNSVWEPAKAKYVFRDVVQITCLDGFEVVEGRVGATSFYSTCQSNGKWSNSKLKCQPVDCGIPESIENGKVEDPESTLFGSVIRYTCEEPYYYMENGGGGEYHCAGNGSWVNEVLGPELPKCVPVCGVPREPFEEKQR
Assay: Human C1s enzyme assay
Format: biochemical
Settings: human complement C1s enzyme 1.16 nM, substrate Z-L-Lys-SBzl 100 μM, 5 min preincubation; read-out: IC50 (Stars), C1s Inhibiting Activity
Outline: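 IC50 from nonlinear regression of reaction rates versus compound concentration, with rates taken from A405 recorded at 30 s intervals over 30 min after adding 100 μM Z-L-Lys-SBzl plus 100 μM DTNB. Enzyme was human C1s purified from serum, 1.16 nM, given 5 min compound preincubation at room temperature, pH 7.5 Tris/1 M NaCl.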

Structure (SMILES) | IC50
C[C@@]12C[C@@H]1N(C(=O)CNC(=O)CCCOc1ccccc1)[C@H](C(=O)OCc1cc3c(cn1)CNC3)C2 [Compound 66, (2,3-dihydro-1H-pyrrolo[3,4-c]pyridin-6-yl)methyl (1S,3S,5S)-5-methyl-2-((4-phenoxybutanoyl)glycyl)-2-azabicyclo[3.1.0]hexane-3-carboxylate] | > 1000 nM
C[C@@]12C[C@@H]1N(C(=O)CNC(=O)CCCOc1ccccc1)[C@H](C(=O)NCc1ccc3c(c1)CNC3)C2 [Compound 67, (1S,3S,5S)-N-(isoindolin-5-ylmethyl)-5-methyl-2-((4-phenoxybutanoyl)glycyl)-2-azabicyclo[3.1.0]hexane-3-carboxamide] | 100 to 1000 nM
C[C@@H](NC(=O)[C@@H]1CC2(CN1C(=O)CNC(=O)c1ccc(-c3ccc(F)cc3F)cc1)OCCO2)c1cc2cnccc2[nH]1 [Compound 68, (S)-N-((R)-1-(1H-pyrrolo[3,2-c]pyridin-2-yl)ethyl)-7-((2′,4′-difluoro-[1,1′-biphenyl]-4-carbonyl)glycyl)-1,4-dioxa-7-azaspiro[4.4]nonane-8-carboxamide] | 100 to 1000 nM
C[C@@]12C[C@@H]1N(C(=O)CNC(=O)CCCOc1ccccc1)[C@H](C(=O)N[C@H]1CCn3c(CN)ccc31)C2 [Compound 69, (1S,3S,5S)-N-((S)-5-(aminomethyl)-2,3-dihydro-1H-pyrrolizin-1-yl)-5-methyl-2-((4-phenoxybutanoyl)glycyl)-2-azabicyclo[3.1.0]hexane-3-carboxamide] | > 1000 nM
COC[C@@]1(F)C[C@@H](C(=O)N[C@H](C)c2cc3cnccc3[nH]2)N(C(=O)CNC(=O)c2ccc(-c3ccc(F)cc3F)cc2)C1 [Compound 70, (2S,4R)-N-((R)-1-(1H-pyrrolo[3,2-c]pyridin-2-yl)ethyl)-1-((2′,4′-difluoro-[1,1′-biphenyl]-4-carbonyl)glycyl)-4-fluoro-4-(methoxymethyl)pyrrolidine-2-carboxamide] | > 1000 nM
CO[C@@H]1C[C@@H](C(=O)N[C@H](C)c2cc3cnccc3[nH]2)N(C(=O)CNC(=O)c2ccc3c(c2)-c2ccccc2C3(F)F)C1 [Compound 71, (2S,4R)-N-((R)-1-(1H-pyrrolo[3,2-c]pyridin-2-yl)ethyl)-1-((9,9-difluoro-9H-fluorene-3-carbonyl)glycyl)-4-methoxypyrrolidine-2-carboxamide] | < 100 nM
C[C@@H](NC(=O)[C@@H]1C[C@@H](S(C)(=O)=O)CN1C(=O)CNC(=O)c1ccc2c(c1)-c1ccccc1C2(F)F)c1cc2cnccc2[nH]1 [Compound 72, (2S,4R)-N-((R)-1-(1H-pyrrolo[3,2-c]pyridin-2-yl)ethyl)-1-((9,9-difluoro-9H-fluorene-3-carbonyl)glycyl)-4-(methylsulfonyl)pyrrolidine-2-carboxamide] | < 100 nM
COC[C@@]1(F)C[C@@H](C(=O)N[C@H](C)c2cc3cnccc3[nH]2)N(C(=O)CNC(=O)c2ccc3c(c2)-c2ccccc2C3(F)F)C1 [Compound 73, (2S,4R)-N-((R)-1-(1H-pyrrolo[3,2-c]pyridin-2-yl)ethyl)-1-((9,9-difluoro-9H-fluorene-3-carbonyl)glycyl)-4-fluoro-4-(methoxymethyl)pyrrolidine-2-carboxamide] | < 100 nM
C[C@@H](NC(=O)[C@@H]1C[C@]2(C)C[C@@H]2N1C(=O)CNC(=O)c1ccc2c(c1)-c1ccccc1C2(F)F)c1cc2cnccc2[nH]1 [Compound 76, (1S,3S,5S)-N-((R)-1-(1H-pyrrolo[3,2-c]pyridin-2-yl)ethyl)-2-((9,9-difluoro-9H-fluorene-3-carbonyl)glycyl)-5-methyl-2-azabicyclo[3.1.0]hexane-3-carboxamide] | > 1000 nM
C[C@@H](NC(=O)[C@@H]1C[C@@H](OC(F)F)CN1C(=O)CNC(=O)c1ccc2c(c1)-c1ccccc1C2(F)F)c1cc2cnccc2[nH]1 [Compound 77, (2S,4R)-N-((R)-1-(1H-pyrrolo[3,2-c]pyridin-2-yl)ethyl)-1-((9,9-difluoro-9H-fluorene-3-carbonyl)glycyl)-4-(difluoromethoxy)pyrrolidine-2-carboxamide] | < 100 nM
C[C@@]12C[C@@H]1N(C(=O)CNC(=O)CCCOc1ccccc1)[C@H](C(=O)N[C@@H]1CCn3c(CN)ccc31)C2 [Compound 78, (1S,3S,5S)-N-((R)-5-(aminomethyl)-2,3-dihydro-1H-pyrrolizin-1-yl)-5-methyl-2-((4-phenoxybutanoyl)glycyl)-2-azabicyclo[3.1.0]hexane-3-carboxamide] | 100 to 1000 nM
C[C@@H](NC(=O)[C@@H]1CC2(CN1C(=O)CNC(=O)c1ccc(-c3ccccc3)cc1)OCCO2)c1cc2cnccc2[nH]1 [Compound 79, (S)-N-((R)-1-(1H-pyrrolo[3,2-c]pyridin-2-yl)ethyl)-7-(([1,1′-biphenyl]-4-carbonyl)glycyl)-1,4-dioxa-7-azaspiro[4.4]nonane-8-carboxamide] | 100 to 1000 nM
Cc1cc(C(=O)NCC(=O)N2C[C@H](OC(F)F)C[C@H]2C(=O)N[C@H](C)c2cc3cnccc3[nH]2)ccc1Oc1ccccc1 [Compound 81] | < 100 nM
C[C@@H](NC(=O)[C@@H]1C[C@@H](S(C)(=O)=O)CN1C(=O)CNC(=O)c1ccc(-c2ccccc2)cc1)c1cc2cnccc2[nH]1 [Compound 82, (2S,4R)-N-((R)-1-(1H-pyrrolo[3,2-c]pyridin-2-yl)ethyl)-1-(([1,1′-biphenyl]-4-carbonyl)glycyl)-4-(methylsulfonyl)pyrrolidine-2-carboxamide] | 100 to 1000 nM
COC[C@@]1(F)C[C@@H](C(=O)N[C@H](C)c2cc3cnccc3[nH]2)N(C(=O)CNC(=O)c2ccc(-c3ccccc3)cc2)C1 [Compound 83, (2S,4R)-N-((R)-1-(1H-pyrrolo[3,2-c]pyridin-2-yl)ethyl)-1-(([1,1′-biphenyl]-4-carbonyl)glycyl)-4-fluoro-4-(methoxymethyl)pyrrolidine-2-carboxamide] | 100 to 1000 nM
C[C@@H](NC(=O)[C@@H]1C[C@](F)(CF)CN1C(=O)CNC(=O)c1ccc(-c2ccccc2)cc1)c1cc2cnccc2[nH]1 [Compound 84, (2S,4R)-N-((R)-1-(1H-pyrrolo[3,2-c]pyridin-2-yl)ethyl)-1-(([1,1′-biphenyl]-4-carbonyl)glycyl)-4-fluoro-4-(fluoromethyl)pyrrolidine-2-carboxamide] | > 1000 nM
C[C@@H](NC(=O)[C@@H]1C[C@@H](S(C)(=O)=O)CN1C(=O)CNC(=O)c1ccc(-c2ccc(F)cc2F)cc1)c1cc2cnccc2[nH]1 [Compound 85, (2S,4R)-N-((R)-1-(1H-pyrrolo[3,2-c]pyridin-2-yl)ethyl)-1-((2′,4′-difluoro-[1,1′-biphenyl]-4-carbonyl)glycyl)-4-(methylsulfonyl)pyrrolidine-2-carboxamide] | > 1000 nM
C[C@@H](NC(=O)[C@@H]1C[C@](F)(CF)CN1C(=O)CNC(=O)c1ccc2c(c1)-c1ccccc1C2(F)F)c1cc2cnccc2[nH]1 [Compound 86, (2S,4R)-N-((R)-1-(1H-pyrrolo[3,2-c]pyridin-2-yl)ethyl)-1-((9,9-difluoro-9H-fluorene-3-carbonyl)glycyl)-4-fluoro-4-(fluoromethyl)pyrrolidine-2-carboxamide] | 100 to 1000 nM
C[C@@H](NC(=O)[C@@H]1C[C@@H](S(C)(=O)=O)CN1C(=O)CNC(=O)c1ccc(Oc2ccc(F)cc2)cc1)c1cc2cnccc2[nH]1 [Compound 87, (2S,4R)-N-((R)-1-(1H-pyrrolo[3,2-c]pyridin-2-yl)ethyl)-1-((4-(4-fluorophenoxy)benzoyl)glycyl)-4-(methylsulfonyl)pyrrolidine-2-carboxamide] | 100 to 1000 nM
